Columns and labels:
Conditions in all cases: 48 h
CU-ACC2 [1] = assay: AC50 viability; higher = less potent
Procedure, shortened: (§1)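 In 1,536-well plates, 500–1,000 cells/well of three adrenocortical carcinoma cell lines in 5 µL medium received 23 nL of each library compound across 11 concentrations. At 48 h, CellTiter-Glo was incubated for 15 minutes at room temperature and luminescence measured. Per-plate normalisation used vehicle and empty-well controls, and only inhibitory or non-responding curve classes were kept when fitting concentration-response curves for AC50 and area under the curve.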

NCI-H295R [2] = assay: AC50 viability; higher = less potent
Procedure, shortened: as §1

CU-ACC1 = assay: area under concentration-response curve (viability) (AUC (a.u.)); higher = less active
Procedure, shortened: as §1

CU-ACC2 [3] = assay: as above
Procedure, shortened: as §1

NCI-H295R [4] = assay: as above
Procedure, shortened: as §1

SMILES | AC50 viability (CU-ACC2 [1]) [µM] | AC50 viability (NCI-H295R [2]) [µM] | area under concentration-response curve (CU-ACC1) | area under concentration-response curve (CU-ACC2 [3]) | area under concentration-response curve (NCI-H295R [4])
Cc1nc([C@](C)(O)CO)sc1-c1cnc(N)c(O[C@H](C)c2cc(F)ccc2-n2nccn2)c1 | 1.86 | 2.63 | 480 | 520 | 421
Cc1cnc(Nc2ccc(F)cc2Cl)nc1-c1c[nH]c(C(=O)N[C@H](CO)c2cccc(Cl)c2)c1 | 18.6 | 26.3 | 500 | 572 | 532
CN1CCN(Cc2ccc(Nc3ncc(Cl)/c(=N\c4ccccc4[S+](=O)([O-])N(C)C)[nH]3)cc2)CC1 | 0.108 | 0.241 | 437 | 378 | 364
C[C@@H]1CC[C@@]2(CC[C@]3(C)\C(=C/C[C@@H]4[C@@]5(C)C[C@@H](O)[C@H](O)[C@@](C)(CO)[C@@H]5CC[C@@]34C)[C@@H]2[C@H]1C)C(O)=O | 1.18 | 2.35 | 371 | 410 | 354
Clc1ccc(C(Cn2ccnc2)OCc2c(Cl)cccc2Cl)c(Cl)c1 (stereo not given) | 18.6 | 20.9 | 371 | 525 | 473
O=C(c1ccc(/C=C/c2n[nH]c3ccccc23)cc1)N1CCNCC1 | 20.9 | 0.263 | 423 | 391 | 397
CC(=O)O/N=C1/C(=C2\C(=O)Nc3cc(Br)ccc32)Nc2ccccc21 | 9.34 | 13.2 | 492 | 561 | 525
CN1CCC(C1CO)C2=C(O)C=C(O)C3=C2O\C(=C/C3=O)C4=CC=CC=C4Cl (stereo not given) | 0.833 | 3.32 | 431 | 417 | 422
COc1ccc(-c2ccc3ncc4c(c3c2)n(-c2ccc(N3CCNCC3)c(C(F)(F)F)c2)c(=O)n4C)cn1 | 1.86 | 1.05 | 376 | 385 | 330
C[C@@H](OC[C@@]1(c2ccccc2)CC[C@]2(CCC(=O)N2)CN1)c1cc(C(F)(F)F)cc(C(F)(F)F)c1 | 20.9 | 16.6 | 550 | 566 | 497
COc1ccc2[nH]c3c(c2c1)CCN[C@]31CS[C@@H]2c3c(OC(C)=O)c(C)c4c(c3[C@H](COC1=O)N1[C@@H]2[C@H]2c3c(cc(C)c(OC)c3O)C[C@@H]([C@@H]1O)N2C)OCO4 | 0.00762 | 0.00762 | 178 | 187 | 161
Cn1c2ccccc2c2c3c(c4c5ccccc5n(CCC#N)c4c21)CNC3=O | 16.6 | 14.8 | 401 | 535 | 503
Nc1nc(N)c(N=O)c(OCC2CCCCC2)n1 | 20.9 | 9.34 | 466 | 492 | 451
CC1(COc2ccc3c(c2)ncn3-c2ccc3cccc(N4CCC(N)CC4)c3n2)COC1 | 13.2 | 16.6 | 545 | 556 | 439
COCCNCc1ccc(-c2cc3nccc(Oc4ccc(NC(=S)NC(=O)Cc5ccc(F)cc5)cc4F)c3s2)nc1 | 7.42 | 4.68 | 436 | 444 | 388
NCC(=O)NC1=CC(=CN=C1)\C2=N\N/3C(=O)\C=C(/N=C3S2)N4CCNCC4 | 0.0934 | 0.00417 | 269 | 254 | 143
N[S+](=O)([O-])c1cccc2c1C(=O)c1cccc(O)c1C2=O | 0.661 | 0.661 | 315 | 380 | 370
CC/C(=C(/c1ccc(O)cc1)c1ccc(OCCNC)cc1)c1ccccc1 | 9.34 | 7.42 | 393 | 403 | 359
COc1cc2ncn(-c3cc(OCc4ccccc4[S+](C)(=O)[O-])c(C#N)s3)c2cc1OC | 33.2 | 37.2 | 351 | 399 | 376
Cc1ccc(-n2nc(C(C)(C)C)cc2N/C(O)=N/Cc2cc(F)ccc2Oc2ccc3c(cnn3CCO)c2)cc1 | 20.9 | 33.2 | 518 | 549 | 522
Cc1cc(Nc2cc(N3CCN(C)CC3)nc(Sc3ccc(NC(=O)C4CC4)cc3)n2)[nH]n1 | 20.9 | 18.6 | 534 | 569 | 459
CN[C@H]1CCC2=CC(=C(OC)C(=C2C/3=C/C=C(OC)\C(=O)/C=C13)OC)OC | 0.468 | 0.0934 | 478 | 463 | 417
CC(C)C(N)C(=O)OCC(CO)OC[N]1C=NC2=C1N\C(=N/C2=O)N (stereo not given) | 5.25 | 0.661 | 426 | 436 | 436
CCN(CC)CCNc1ccc(C)c2sc3ccccc3c(=O)c12 | 20.9 | 20.9 | 447 | 489 | 456

Reference: the supplement of paper PMC10949913
